The target in test [1] is recombinant human Bcl-2 D103Y protein (Homo sapiens (Human), UniProt P10415, D103Y). Put plainly: Bcl-2-D103Y Biochemical Assay (TR-FRET). In kind it is binding. Conditions: for IC50: TR-FRET, FITC labeled Bak peptide; for Ratio of Bcl-2 D103Y/Bcl-2 WT: ratio of IC50. The method, boiled down:
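Recombinant human Bcl-2 D103Y binding to its ligand measured by TR-FRET (ex 337 nm, em 490/520 nm) with increasing compound concentrations. Percent inhibition from the 490/520 nm ratio; IC50 from four-parameter logistic fit.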

Test [2] relates to RS4;11 (BCL-2 dependent acute lymphoblastic leukemia cell line). In words: RS4;11 Cell Proliferation Assay. Conditions: Homo sapiens, RS4-11, RS4;11 cells, read-out: Cellular proliferation assay (IC50, nM) RS4. Format: cell-based. The method, boiled down:
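RS4;11 cells, 50,000 per well in RPMI-1640 with 10% FBS, treated 48 h at 37 °C with a 10-point dilution series topping at 1 μM. Viability read by CellTiter-Glo ATP luminescence; mean IC50 reported.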

Test [3] deals with BCL-2 G101V knock-in cell line H96 (derive from RS4;11). In words: Bcl 2-G101V Knock-In RS4;11 Cell Proliferation Assay. Format: cell-based. Particulars: Homo sapiens, RS4;11 Bcl-2 G101V knock-in clone H96, 48 hrs, CellTiter-GLO, read-out: Cellular proliferation assay (IC50, nM) RS4. The method, boiled down: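 H96, a CRISPR-generated RS4;11 clone carrying BCL2-G101V knock-in (WES/RNA-seq validated), seeded 50,000 per well and exposed 48 h at 37 °C to 10-point dilutions topping at 1 or 10 μM. Viability by CellTiter-Glo luminescence; mean IC50.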
On the technique in general: In ATP-based viability assays light output follows the ATP content of the culture.

In test [4] the target is Recombinant human Bcl-2 protein (Homo sapiens (Human), UniProt P10415). Put plainly: Bcl-2 TR-FRET Assay. In kind it is binding. The method, boiled down: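 0.05 nM recombinant Bcl-2 preincubated 0.5 h at room temperature with 10-point compound dilutions (top final 1, 0.1, 0.02 or 0.01 uM) in pH 7.5 phosphate buffer. FITC-Bak peptide (0.5 nM) and anti-6His Tb cryptate then added for 1 h. TR-FRET read; IC50 from four-parameter logistic fit.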
For orientation: Time-resolved FRET reads energy transfer from a long-lived donor to a nearby acceptor.

Test [5] deals with recombinant human Bcl-2-G101V protein. In words: Bcl-2-G101V TR-FRET Assay. In kind it is binding. Particulars: for Ratio of Bcl-2 G101V/WT: ratio of biochemical IC50 Bcl-2 G101V / Bcl-2 WT. The method, boiled down:
(§1)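 TR-FRET read at excitation 337 nm with emission at 490 nm and 520 nm. Inhibition of Bcl-2-G101V binding to its ligand across increasing compound concentrations was calculated from the 490/520 nm fluorescence ratio, and IC50 values came from four-parameter logistic fits.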

Test [6] addresses recombinant human Bcl-2-G101V protein (Homo sapiens (Human), UniProt P10415, G101V). In words: Bcl-2-G101V TR-FRET Assay. Particulars: Bcl-2 G101V mutant, TR-FRET; read-out: Biochemical assay (IC50, nM) Bcl-2 G101V. In kind it is binding. The method, boiled down:
as §1

Setting [7] is: Bcl-2 wild type, TR-FRET, read-out: Biochemical assay (IC50, nM) Bcl-2 WT.
The mark [8] stands for this setting: wild type Bcl-2, unit inferred, read-out: Bcl-2 WT.

The results in this text go back to patent US20240376097A1, “BCL-2 Inhibitor” (BeiGene Ltd., priority 2020, published 2024).

Like-named read-outs stand apart in the source and are kept apart here.

`CCc1ccc(CN2CCN(C3CC4(C3)CN(c3ccc(C(=O)NS(=O)(=O)c5ccc(NC[C@H]6CC[C@](C)(O)CC6)c([N+](=O)[O-])c5)c(Oc5cnc6[nH]cc(F)c6c5)c3)C4)[C@H](c3ccccc3C(C)C)C2)cc1OC` [Example 268, 4-(6-((R)-4-(4-ethyl-3-methoxybenzyl)-2-(2-isopropylphenyl)piperazin-1-yl)-2-azaspiro[3.3]heptan-2-yl)-2-((3-fluoro-1H-pyrrolo[2,3-b]pyridin-5-yl)oxy)-N-((4-((((1r,4r)-4-hydroxy-4-methylcyclohexyl)methyl)amino)-3-nitrophenyl)sulfonyl) benzamide]: the IC50 in test [1] was found to be 0.88 nM; in test [2], 0.1 nM; in test [3], 0.25 nM; in test [4] (setting [7]), 0.79 nM; in test [4] (setting [8]), 0.79 nM; in test [6] it was 1.3 nM. Further, the “Ratio of Bcl-2 D103Y/Bcl-2 WT” value in test [1] worked out at 1.1. The “Ratio of Bcl-2 G101V/WT” value in test [5] was 1.6.
As to `COc1cc(CN2CCN(C3CC4(C3)CN(c3ccc(C(=O)NS(=O)(=O)c5ccc(NC[C@H]6CC[C@](C)(O)CC6)c([N+](=O)[O-])c5)c(Oc5cnc6[nH]cc(F)c6c5)c3)C4)[C@H](c3ccccc3C(C)C)C2)ccc1OC(C)C` [Example 349, 2-((3-fluoro-1H-pyrrolo[2,3-b]pyridin-5-yl)oxy)-N-((4-((((1r,4r)-4-hydroxy-4-methylcyclohexyl)methyl)amino)-3-nitrophenyl)sulfonyl)-4-(6-((R)-4-(4-isopropoxy-3-methoxybenzyl)-2-(2-isopropylphenyl)piperazin-1-yl)-2-azaspiro[3.3]heptan-2-yl) benzamide], the IC50 in test [1] was 0.17 nM; in test [2] it was 0.16 nM; in test [3], 0.44 nM; in test [4] (setting [7]), 0.2 nM; in test [4] (setting [8]), 0.2 nM; in test [6], 0.43 nM. In addition, in test [1], the “Ratio of Bcl-2 D103Y/Bcl-2 WT” value stood at 0.9. For the same compound, in test [5], the “Ratio of Bcl-2 G101V/WT” value was 2.2.
In the case of `CC(C)c1ccccc1C1CN(CCc2ccccc2)CCN1C1CC2(CCN(c3ccc(C(=O)NS(=O)(=O)c4ccc(NC[C@H]5CC[C@](C)(O)CC5)c([N+](=O)[O-])c4)c(Oc4cnc5[nH]ccc5c4)c3)CC2)C1` (some centres unmarked) [Example 26, 2-((1H-pyrrolo[2,3-b]pyridin-5-yl)oxy)-N-((4-((((1r,4r)-4-hydroxy-4-methylcyclohexyl)methyl)amino)-3-nitrophenyl)sulfonyl)-4-(2-(2-(2-isopropylphenyl)-4-phenethylpiperazin-1-yl)-7-azaspiro[3.5]nonan-7-yl)benzamide], the IC50 in test [1] is 0.51 nM; in test [2], 0.85 nM; in test [3], 8.48 nM; in test [4] (setting [7]) it was 0.11 nM; in test [4] (setting [8]), 0.11 nM; in test [6] it was 1.4 nM. In test [1], the “Ratio of Bcl-2 D103Y/Bcl-2 WT” value stood at 4.7. Also, in test [5], the “Ratio of Bcl-2 G101V/WT” value amounted to 12.7.
In the case of `CC(C)c1ccccc1C1CN(Cc2ccc(C#N)cc2)CCN1C1CC2(CCN(c3ccc(C(=O)NS(=O)(=O)c4ccc(NC[C@H]5CC[C@](C)(O)CC5)c([N+](=O)[O-])c4)c(Oc4cnc5[nH]ccc5c4)c3)CC2)C1` (some centres unmarked) [Example 42, 2-((1H-pyrrolo[2,3-b]pyridin-5-yl)oxy)-4-(2-(4-(4-cyanobenzyl)-2-(2-isopropylphenyl)piperazin-1-yl)-7-azaspiro[3.5]nonan-7-yl)-N-((4-((((1r,4r)-4-hydroxy-4-methylcyclohexyl)methyl)amino)-3-nitrophenyl)sulfonyl)benzamide], the IC50 in test [1] was 1.7 nM; in test [2], 1.8 nM; in test [3], 13.5 nM; in test [4] (setting [7]) it was 0.41 nM; in test [4] (setting [8]) it was 0.41 nM; in test [6], 2.5 nM. In test [1], the “Ratio of Bcl-2 D103Y/Bcl-2 WT” value was 4.1. Moreover, the “Ratio of Bcl-2 G101V/WT” value in test [5] was found to be 6.1.
As to `C#Cc1ccc(CN2CCN(C3CC4(CCN(c5ccc(C(=O)NS(=O)(=O)c6ccc(NC[C@H]7CC[C@](C)(O)CC7)c([N+](=O)[O-])c6)c(Oc6cnc7[nH]ccc7c6)c5)CC4)C3)C(c3ccccc3C(C)C)C2)cc1OC` (some centres unmarked) [Example 162], the IC50 was 0.61 nM in test [1]; 0.373 nM in test [2]; 2.04 nM in test [3]; 0.38 nM in test [4] (setting [7]); 0.38 nM in test [4] (setting [8]); 1.5 nM in test [6]. In addition, the “Ratio of Bcl-2 D103Y/Bcl-2 WT” value in test [1] is 1.6. In addition, the “Ratio of Bcl-2 G101V/WT” value in test [5] is on record as 3.8.
As to `CC(C)c1ccccc1C1CN(Cc2cnn(C3CC3)c2)CCN1C1CC2(CCN(c3ccc(C(=O)NS(=O)(=O)c4ccc(NC[C@H]5CC[C@](C)(O)CC5)c([N+](=O)[O-])c4)c(Oc4cnc5[nH]ccc5c4)c3)CC2)C1` (some centres unmarked) [Example 70, 2-((1H-pyrrolo[2,3-b]pyridin-5-yl)oxy)-4-(2-(4-((1-cyclopropyl-1H-pyrazol-4-yl)methyl)-2-(2-isopropylphenyl)piperazin-1-yl)-7-azaspiro[3.5]nonan-7-yl)-N-((4-((((1r,4r)-4-hydroxy-4-methylcyclohexyl)methyl)amino)-3-nitrophenyl)sulfonyl)benzamide], the IC50 in test [1] stood at 0.1 nM; in test [2], 0.38 nM; in test [3], 1.5 nM; in test [4] (setting [7]), 0.014 nM; in test [4] (setting [8]) it was 0.014 nM; in test [6], 0.13 nM. For the same compound, the “Ratio of Bcl-2 D103Y/Bcl-2 WT” value in test [1] stood at 7.1. Further, in test [5], the “Ratio of Bcl-2 G101V/WT” value stood at 9.
For `COc1ccc(CN2CCN(C3CC4(CCN(c5ccc(C(=O)NS(=O)(=O)c6ccc(NC[C@@H]7CN(C8COC8)CCO7)c([N+](=O)[O-])c6)c(Oc6cnc7[nH]ccc7c6)c5)CC4)C3)[C@@H](c3ccccc3C(C)C)C2)cc1` (single isomer, unassigned) [Example 84, 2-((1H-pyrrolo[2,3-b]pyridin-5-yl)oxy)-4-(2-((R or S)-2-(2-isopropylphenyl)-4-(4-methoxybenzyl)piperazin-1-yl)-7-azaspiro[3.5]nonan-7-yl)-N-((3-nitro-4-((((R)-4-(oxetan-3-yl)morpholin-2-yl)methyl)amino)phenyl)sulfonyl)benzamide], the IC50 in test [1] came out at 0.049 nM; in test [2], 0.206 nM; in test [3], 0.6 nM; in test [4] (setting [7]) it was 0.028 nM; in test [4] (setting [8]) it was 0.028 nM; in test [6], 0.15 nM. In addition, the “ratio of Bcl-2 D103Y/Bcl-2 wt, compared with F91b in WO2019210828” value in test [1] (comparison in words) was “significantly lower”. Also, the “Ratio of Bcl-2 D103Y/Bcl-2 WT” value in test [1] came to 1.8. In test [5] (comparison in words), the “ratio of IC50 of Bcl-2 G101V/Bcl-2 wt, compared with Example F132b in WO2019210828 and ABT-199 (venetoclax)” value is recorded as “much lower”. For the same compound, the “Ratio of Bcl-2 G101V/WT” value in test [5] is reported as 5.2.
In the case of `COc1ccc(CN2CCN(C3CC4(CCN(c5ccc(C(=O)NS(=O)(=O)c6ccc(NC[C@H]7CC[C@](C)(O)CC7)c([N+](=O)[O-])c6)c(Oc6cnc7[nH]ccc7c6)c5)CC4)C3)C(c3ccccc3C(C)C)C2)c2c1OCCO2` (some centres unmarked) [Example 203, 2-((1H-pyrrolo[2,3-b]pyridin-5-yl)oxy)-N-((4-((((1r,4r)-4-hydroxy-4-methylcyclohexyl)methyl)amino)-3-nitrophenyl)sulfonyl)-4-(2-(2-(2-isopropylphenyl)-4-((8-methoxy-2,3-dihydrobenzo[b][1,4]dioxin-5-yl)methyl)piperazin-1-yl)-7-azaspiro[3.5]nonan-7-yl) benzamide], the IC50 amounted to 0.083 nM in test [1]; 0.38 nM in test [2]; 0.9 nM in test [3]; 0.052 nM in test [4] (setting [7]); 0.052 nM in test [4] (setting [8]); 0.17 nM in test [6]. Besides, in test [1], the “Ratio of Bcl-2 D103Y/Bcl-2 WT” value was 1.6. Further, in test [5], the “Ratio of Bcl-2 G101V/WT” value worked out at 3.2.
As to `COc1cc(CN2CCN(C3CC4(CCN(c5ccc(C(=O)NS(=O)(=O)c6ccc(NC[C@H]7CC[C@](C)(O)CC7)c([N+](=O)[O-])c6)c(Oc6cnc7[nH]ccc7c6)c5)CC4)C3)[C@H](c3ccccc3C(C)C)C2)ccc1C(F)F` [Example 288, 2-((1H-pyrrolo[2,3-b]pyridin-5-yl)oxy)-4-(2-((R)-4-(4-(difluoromethyl)-3-methoxybenzyl)-2-(2-isopropylphenyl)piperazin-1-yl)-7-azaspiro[3.5]nonan-7-yl)-N-((4-((((1r,4r)-4-hydroxy-4-methylcyclohexyl)methyl)amino)-3-nitrophenyl)sulfonyl)benzamide], the IC50 in test [1] worked out at 0.43 nM; in test [2], 0.19 nM; in test [3] it was 0.87 nM; in test [4] (setting [7]), 0.52 nM; in test [4] (setting [8]), 0.52 nM; in test [6], 1.3 nM. In addition, the “Ratio of Bcl-2 D103Y/Bcl-2 WT” value in test [1] came out at 0.84. Also, the “Ratio of Bcl-2 G101V/WT” value in test [5] stood at 2.5.
